Results reported in patent US7943770B2, “Fused quinoline derivative and use thereof” (Takeda Pharmaceutical Company Limited, priority 2004, dated 2011).
pIC50: −log10 of the molar value.

Target: T1, hNK2 receptor (Homo sapiens, UniProt P21452)
T1 construct: host or cells: CHO cells
T1 sequence (P21452 1-398): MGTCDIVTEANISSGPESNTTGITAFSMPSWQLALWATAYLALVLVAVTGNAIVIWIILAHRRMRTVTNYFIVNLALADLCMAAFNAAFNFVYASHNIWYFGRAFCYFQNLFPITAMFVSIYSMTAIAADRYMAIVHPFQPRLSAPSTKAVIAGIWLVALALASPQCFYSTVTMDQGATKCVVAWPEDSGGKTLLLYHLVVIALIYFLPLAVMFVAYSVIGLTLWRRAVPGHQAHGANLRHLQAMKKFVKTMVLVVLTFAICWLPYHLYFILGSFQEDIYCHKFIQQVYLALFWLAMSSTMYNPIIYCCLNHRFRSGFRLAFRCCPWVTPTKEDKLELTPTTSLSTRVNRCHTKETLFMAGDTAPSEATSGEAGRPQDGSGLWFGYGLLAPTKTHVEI
Assay: Radio-ligand ([125I]-NKA) receptor binding inhibitory activity using membrane fraction of hNK2 receptor-expressing CHO cell
Details: membrane fraction of hNK2 receptor-expressing CHO cells, 25° C., 30 min
Method: hNK2 receptor-expressing CHO cells (produced by EUROSCREEN) were cultured in HAM-F12 medium containing 400 μg/ml Geneticin, 100 U/mL penicillin, 100 μg/mL streptomycin and 10% inactivated serum. The medium was removed and adhered cells were washed with PBS, and PBS containing 5 mM EDTA was added to detach the cells from the flask. The cells were recovered by centrifugation, suspended in suspending buffer A (15 mM Tris-HCl (pH 7.5), 2 mM MgCl2, 0.3 mM EDTA, 1 mM EGTA), disrupted by POLYTRON homogenizer (manufactured by KINEMATICA) and centrifuged at 800×g for 10 min. The supernatant was recovered and ultracentrifuged at 100000×g for 25 min. The precipitated fraction was suspended in suspending buffer B (7.5 mM Tris-HCl (pH 7.5), 12.5 mM MgCl2, 0.3 mM EDTA, 1 mM, […], 250 mM Sucrose) and cryopreserved (at −80° C.) as a receptor specimen.
An assay buffer (50 μl, 50 mM Tris-HCl (pH 7.4), 0.02% bovine serum albumin, 2 μg/mL chymostatin, 40 μg/mL bacitracin, 40 μg/mL APMSF, 3 mM MnCl2) was added to a 96 well microassay plate. Thereto was added a 20 μg/mL membrane specimen suspended in the assay buffer (50 μL). An assay buffer (50 μL) containing 2% dimethyl sulfoxide was added to examine the total binding, 4 unlabeled NKA (produced by Peptide Institute, Inc.) solution (50 μL) diluted with an assay buffer containing 2% dimethyl sulfoxide was added to examine non-specific binding, and a test compound diluted with an assay buffer (50 containing 2% dimethyl sulfoxide) was added to examine the binding inhibitory activity of the test compound. Furthermore, […] [^125I]-NKA (produced by Amersham Biosciences) solution (50 μL) was added to each well.
After reaction at 25° C. for 30 min., the reaction was stopped by rapid filtration on a unifilter plate (GF/C) (manufactured by PerkinElmer) using a cell harvester (manufactured by PerkinElmer) and the cells were washed 5 times with 50 mM Tris-HCl (pH 7.4) buffer containing 0.02% bovine serum albumin (250 μL). The GF/C filter plate was dried and 20 μl, of MicroScinti-O (manufactured by PerkinElmer) was added and the radioactivity was measured in Topcount (manufactured by PerkinElmer). The GF/C filter plate, which had been immersed in 0.3% polyethyleneimine for one day, was used. Specific binding is shown by the value obtained by subtracting non-specific binding from the total binding. The binding inhibitory activity of the test compound is shown by the ratio of the value obtained by subtracting the measured value associated with the addition of the test compound from the total binding, to the value of the specific binding.

CCCCNC(=O)N[C@@H]1CCCC[C@@H]1C(=O)N1CC[C@@H]2[C@H](CCC)Nc3ccccc3[C@@H]21 [Example 199, N-Butyl-N′-((1R,2S)-2-{[(3aR,4S,9bR)-4-propyl-2,3,3a,4,5,9b-hexahydro-1H-pyrrolo[3,2-c]quinolin-1-yl]carbonyl}cyclohexyl)urea]
pIC50: > 8.00

COC[C@@H]1Nc2ccccc2[C@H]2[C@@H]1CCN2C(=O)[C@H]1CCCC[C@H]1NC(=O)c1ccc2[nH]c(C(F)(F)F)nc2c1 [Example 282, N-((1R,2S)-2-{[(3aR,4R,9bR)-4-(Methoxymethyl)-2,3,3a,4,5,9b-hexahydro-1H-pyrrolo[3,2-c]quinolin-1-yl]carbonyl}cyclohexyl)-2-(trifluoromethyl)-1H-benzimidazole-5-carboxamide]
pIC50: > 8.00

O=C(NCc1ccccc1)N[C@@H]1CCCC[C@@H]1C(=O)N1CC[C@@H]2[C@H](c3ccccc3)Nc3ccccc3[C@@H]21 [Example 143, N-Benzyl-N′-((1R,2S)-2-{[(3aR,4R,9bR)-4-phenyl-2,3,3a,4,5,9b-hexahydro-1H-pyrrolo[3,2-c]quinolin-1-yl]carbonyl}cyclohexyl)urea]
pIC50: > 8.00

O=C(N[C@@H]1CCCC[C@@H]1C(=O)N1CC[C@@H]2[C@H](c3ncc[nH]3)Nc3ccccc3[C@@H]21)c1cccc(C(F)(F)F)c1 [Example 305, N-((1R,2S)-2-{[(3aR,4R,9bR)-4-(1H-Imidazol-2-yl)-2,3,3a,4,5,9b-hexahydro-1H-pyrrolo[3,2-c]quinolin-1-yl]carbonyl}cyclohexyl)-3-(trifluoromethyl)benzamide]
pIC50: > 9.00

O=C(N[C@@H]1CCCC[C@@H]1C(=O)N1CC[C@@H]2[C@H](c3ccccc3)Nc3ccccc3[C@@H]21)c1ccc(F)cc1 [Example 92, 4-Fluoro-N-((1R,2S)-2-{[(3aR,4R,9bR)-4-phenyl-2,3,3a,4,5,9b-hexahydro-1H-pyrrolo[3,2-c]quinolin-1-yl]carbonyl}cyclohexyl)benzamide]
pIC50: > 8.00

CCC[C@@H]1Nc2ccccc2[C@H]2[C@@H]1CCN2C(=O)[C@H]1CCCC[C@H]1NC(=O)Nc1ccc(OC)cc1 [Example 196, N-(4-Methoxyphenyl)-N′-((1R,2S)-2-{[(3aR,4S,9bR)-4-propyl-2,3,3a,4,5,9b-hexahydro-1H-pyrrolo[3,2-c]quinolin-1-yl]carbonyl}cyclohexyl)urea]
pIC50: > 9.00

COC[C@@H]1Nc2ccccc2[C@H]2[C@@H]1CCN2C(=O)[C@H]1CCCC[C@H]1NC(=O)Nc1ccc(OC)c(C#N)c1 [Example 285, N-(3-Cyano-4-methoxyphenyl)-N′-((1R,2S)-2-{[(3aR,4R,9bR)-4-(methoxymethyl)-2,3,3a,4,5,9b-hexahydro-1H-pyrrolo[3,2-c]quinolin-1-yl]carbonyl}cyclohexyl)urea]
pIC50: > 9.00

CC(C)NC(=O)N[C@@H]1CCCC[C@@H]1C(=O)N1CC[C@@H]2[C@H](c3ccccc3)Nc3ccccc3[C@@H]21 [Example 152, N-Isopropyl-N′-((1R,2S)-2-{[(3aR,4R,9bR)-4-phenyl-2,3,3a,4,5,9b-hexahydro-1H-pyrrolo[3,2-c]quinolin-1-yl]carbonyl}cyclohexyl)urea]
pIC50: > 8.00

COc1ccc(NC(=O)N[C@@H]2CCCC[C@@H]2C(=O)N2CC[C@@H]3[C@H](c4ccccc4)Nc4ccccc4[C@@H]32)cc1 [Example 137, N-(4-Methoxyphenyl)-N′-((1R,2S)-2-{[(3aR,4R,9bR)-4-phenyl-2,3,3a,4,5,9b-hexahydro-1H-pyrrolo[3,2-c]quinolin-1-yl]carbonyl}cyclohexyl)urea]
pIC50: > 9.00

O=C(N[C@@H]1CCCC[C@@H]1C(=O)N1CC[C@@H]2[C@H](c3ccccc3)Nc3ccccc3[C@@H]21)c1ccc(CO)cc1 [Example 120, 4-(Hydroxymethyl)-N-((1R,2S)-2-{[(3aR,4R,9bR)-4-phenyl-2,3,3a,4,5,9b-hexahydro-1H-pyrrolo[3,2-c]quinolin-1-yl]carbonyl}cyclohexyl)benzamide]
pIC50: > 8.00

COC[C@@H]1Nc2ccccc2[C@H]2[C@@H]1CCN2C(=O)[C@H]1CCCC[C@H]1NC(=O)c1ccc(N(C)CCO)cc1 [Example 270, 4-[(2-Hydroxyethyl) (methyl)amino]-N-((1R,2S)-2-{[(3aR,4R,9bR)-4-(methoxymethyl)-2,3,3a,4,5,9b-hexahydro-1H-pyrrolo[3,2-c]quinolin-1-yl]carbonyl}cyclohexyl)benzamide]
pIC50: > 8.00

O=C(N[C@@H]1CCCC[C@@H]1C(=O)N1CC[C@@H]2[C@H](c3ccsc3)Nc3ccccc3[C@@H]21)c1ccc2[nH]nnc2c1 [Example 189, N-((1R,2S)-2-{[(3aR,4R,9bR)-4-(3-Thienyl)-2,3,3a,4,5,9b-hexahydro-1H-pyrrolo[3,2-c]quinolin-1-yl]carbonyl}cyclohexyl)-1H-1,2,3-benzotriazole-5-carboxamide]
pIC50: > 9.00

COC[C@@H]1Nc2ccccc2[C@H]2[C@@H]1CCN2C(=O)[C@H]1CCCC[C@H]1NC(=O)c1ccc(N(C)C)cc1 [Example 213, 4-(Dimethylamino)-N-((1R,2S)-2-{[(3aR,4R,9bR)-4-(methoxymethyl)-2,3,3a,4,5,9b-hexahydro-1H-pyrrolo[3,2-c]quinolin-1-yl]carbonyl}cyclohexyl)benzamide]
pIC50: > 9.00

CCNC(=O)N[C@@H]1CCCC[C@@H]1C(=O)N1CC[C@@H]2[C@H](c3ccccc3)Nc3ccccc3[C@@H]21 [Example 151, N-Ethyl-N′-((1R,2S)-2-{[(3aR,4R,9bR)-4-phenyl-2,3,3a,4,5,9b-hexahydro-1H-pyrrolo[3,2-c]quinolin-1-yl]carbonyl}cyclohexyl)urea]
pIC50: > 8.00

CC(=O)N1CCC(NC(=O)N[C@@H]2CCCC[C@@H]2C(=O)N2CC[C@@H]3[C@H](c4ccccc4)Nc4ccccc4[C@@H]32)CC1 [Example 175, N-(1-Acetylpiperidin-4-yl)-N′-((1R,2S)-2-{[(3aR,4R,9bR)-4-phenyl-2,3,3a,4,5,9b-hexahydro-1H-pyrrolo[3,2-c]quinolin-1-yl]carbonyl}cyclohexyl)urea]
pIC50: > 8.00

COC[C@@H]1Nc2ccccc2[C@H]2[C@@H]1CCN2C(=O)[C@H]1CCCC[C@H]1NC(=O)c1ccc2ncsc2c1 [Example 253, N-((1R,2S)-2-{[(3aR,4R,9bR)-4-(Methoxymethyl)-2,3,3a,4,5,9b-hexahydro-1H-pyrrolo[3,2-c]quinolin-1-yl]carbonyl}cyclohexyl)-1,3-benzothiazole-6-carboxamide]
pIC50: > 8.00

COc1ccccc1C(=O)N[C@@H]1CCCC[C@@H]1C(=O)N1CC[C@@H]2[C@H](c3ccccc3)Nc3ccccc3[C@@H]21 [Example 94, 2-Methoxy-N-((1R,2S)-2-{[(3aR,4R,9bR)-4-phenyl-2,3,3a,4,5,9b-hexahydro-1H-pyrrolo[3,2-c]quinolin-1-yl]carbonyl}cyclohexyl)benzamide]
pIC50: > 8.00

COC[C@@H]1Nc2ccccc2[C@H]2[C@@H]1CCN2C(=O)[C@H]1CCCC[C@H]1NC(=O)c1ccc(N2CCOCC2)nc1 [Example 286, N-((1R,2S)-2-{[(3aR,4R,9bR)-4-(Methoxymethyl)-2,3,3a,4,5,9b-hexahydro-1H-pyrrolo[3,2-c]quinolin-1-yl]carbonyl}cyclohexyl)-6-morpholin-4-ylnicotinamide]
pIC50: > 8.00

O=C(CCCCCBr)N[C@@H]1CCCC[C@@H]1C(=O)N1CC[C@@H]2[C@H](c3ccccc3)Nc3ccccc3[C@@H]21 [Example 109, 6-Bromo-N-((1R,2S)-2-{[(3aR,4R,9bR)-4-phenyl-2,3,3a,4,5,9b-hexahydro-1H-pyrrolo[3,2-c]quinolin-1-yl]carbonyl}cyclohexyl)hexanamide]
pIC50: > 8.00

CCC[C@@H]1Nc2ccccc2[C@H]2[C@@H]1CCN2C(=O)[C@H]1CCCC[C@H]1NC(=O)NCC [Example 198, N-Ethyl-N′-((1R,2S)-2-{[(3aR,4S,9bR)-4-propyl-2,3,3a,4,5,9b-hexahydro-1H-pyrrolo[3,2-c]quinolin-1-yl]carbonyl}cyclohexyl)urea]
pIC50: > 8.00
